The text below walks through data of patent US11213524B2, “Pharmaceutical compositions for subcutaneous administration of levosimendan” (Tenax Therapeutics, Inc., priority 2018, dated 2022).

Molecules are shown by their SMILES.

Series [1] is described as follows: Storage stability of lyophilized levosimendan/Captisol composition (HPLC % area). It is filed as physicochemical. The note with it: for quantity of OR-1420: after 6 months. As to the method:
A study was conducted to determine the stability of a levosimendan composition of the present invention stored under different conditions for up to six months.
The composition used for the study comprised 3 mg/ml of levosimendan and 200 mg/ml of Captisol®. To prepare the composition, the levosimendan and Captisol® were mixed together, adjusted to a pH of 7.4 using 1N NaOH, and then lyophilized.
Samples were dissolved in 50% acetonitrile and stored frozen at approximately −20° C. The compositions were analyzed at the following time points: 0, 1-month, 2-months, 4-months, and 6-months. The compositions were taken out of storage and reconstituted using distilled water. A sample from each composition was diluted at 15x-150x and analyzed using HPLC (Sciex API 3200 Linear Ion Trap, Shimadzu LC-20ADVP HPLC Pumps, Shimadzu Controller SCL-10AVP, Shimadzu Autosampler SIL-20ADVP) under the following conditions: Column, Restek Raptor Biphenyl, 2.7 μm, 100×3 mm; Mobile phase A, 5 mM Ammonium Formate/0.1% FA in H2O; Mobile phase B, 100% methanol).

For series [2] the following is noted: cited from earlier work.
Series [3] is described as follows: Solubility of levosimendan at different Captisol concentrations (HPLC). Format: physicochemical. The note with it: 10 mM phosphate buffer, pH 7, Captisol 0, 50, 100, 200, 400 mg/ml, room temperature. As to the method:
A study was conducted to evaluate the impact of the concentration of the cyclodextrin or cyclodextrin derivative on the solubility of levosimendan. In particular, the study focused on the cyclodextrin derivative, Captisol® (sulfobutylether beta-cyclodextrin).
The study compared compositions comprising levosimendan, 10 mM phosphate buffer, and Captisol® at the following concentrations: 0 mg/ml (i.e., no Captisol®), 50 mg/ml, 100 mg/ml, 200 mg/ml, and 400 mg/ml. The compositions with Captisol® were prepared by mixing the levosimendan and Captisol®, and adding the 10 mM phosphate buffer until the pH of the composition was 7. The compositions were stored at room temperature.
Captisol®'s impact on the solubility of levosimendan was determined using HPLC.

Series [4] in a line: Pharmacokinetic study, IV vs subcutaneous dosing, plasma levosimendan and OR-1896 by HPLC/MS/MS. As to conditions: male, Sprague Dawley, rat, in vivo. The method, then:
A pharmacokinetic study was conducted in male Sprague Dawley rats to compare subcutaneous administration of a composition of the present invention with IV administration of a formulation of levosimendan. The study evaluated levosimendan blood levels and pain at the injection site.
This study involved comparing the results of administering two subcutaneous compositions according to embodiments of the present invention to a previous pharmacokinetic study in which male rats were dosed by tail vein levosimendan as an IV bolus injection at 0.5 mg/kg using a 0.25 mg/ml solution. […]
Plasma samples were analyzed for levosimendan and OR-1896 (the primary metabolite) by HPLC/MS/MS. […]

The mark [5] stands for this setting: after four months, 25° C./60% RH.
[6] abbreviates: after six months, 25° C./60% RH.

For `C[C@@H]1CC(=O)NN=C1c1ccc(N/N=C(\C#N)C(N)=O)cc1` [OR-1420], the “Level of OR-1420 (% Area)” value in series [1] (5° C., 1-month) is reported as 0.055% Area; in series [1] (5° C., 4-months), 0.057% Area; in series [1] (5° C., 6-months), 0.112% Area; in series [1] (25° C./60% RH, 1-month) it was 0.155% Area; in series [1] (25° C./60% RH, 2-months), 0.212% Area; in series [1] (25° C./60% RH, 4-months), 0.285% Area. The “Level of OR-1420 (% Area)” value in series [1] (25° C./60% RH, 6-months) is recorded as 0.377% Area; in series [1] (40° C./75% RH, 1-month) it was 0.436% Area; in series [1] (40° C./75% RH, 4-months), 0.999% Area; in series [1] (40° C./75% RH, 6-months), 1.420% Area; in series [1] (T0), 0.021% Area; in series [1] (−20° C., 1-month), 0.050% Area. The “Level of OR-1420 (% Area)” value in series [1] (−20° C., 4-months) amounted to 0.045% Area; in series [1] (−20° C., 6-months), 0.082% Area; in series [1] (−80° C., 1-month), 0.055% Area; in series [1] (−80° C., 4-months) it was 0.084% Area; in series [1] (−80° C., 6-months) it was 0.083% Area. Further, the “quantity of OR-1420” value in series [1] (40° C./75% RH) is given as “below 1.5%”; in series [1] (all other storage conditions), “less than 0.5%”. Further, the “Level of Degradants (% Area)” value in series [1] (after four months, 5° C.) worked out at 0.057 % Area; in series [1] (setting [5]) it was 0.285 % Area; in series [1] (after four months, 40° C./75% RH), 0.999 % Area; in series [1] (after four months, −20° C.), 0.045 % Area; in series [1] (after four months, −80° C.) it was 0.084 % Area; in series [1] (after six months, 5° C.), 0.112 % Area. Further, the “Level of Degradants (% Area)” value came to 0.377 % Area in series [1] (setting [6]); 1.42 % Area in series [1] (after six months, 40° C./75% RH); 0.082 % Area in series [1] (after six months, −20° C.); 0.083 % Area in series [1] (after six months, −80° C.).
As to `CC(=O)Nc1ccc(C2=NNC(=O)C[C@H]2C)cc1` [OR-1896], in series [2] (after starting a 24-hour infusion), the “time at which maximum concentrations of OR-1896 are seen” value is 2 to 4 days. The “half-life of OR-1896” value in series [2] (heart failure patients) was 70 to 80 h.
Turning to `C[C@@H]1CC(=O)NN=C1c1ccc(NN=C(C#N)C#N)cc1` [levosimendan, (−)-enantiomer of [[4-(1,4,5,6-tetrahydro-4-methyl-6-oxo-3-pyridazinyl)phenyl]hydrazono]prop anedinitrile], the solubility of levosimendan entry in series [3] is “increased as the concentration of Captisol® increased”. Further, in series [4], the “start of the β phase (loss of drug from blood mainly due to metabolism)” value is listed as “about 2 hours”. Further, the “Levels of Levosimendan (% Area)” value in series [1] (3 mg/ml levosimendan, 200 mg/ml Captisol, lyophilized, T0) is 99.98% Area; in series [1] (5° C., 1-month) it was 99.85% Area; in series [1] (5° C., 2-months), 100.00% Area; in series [1] (5° C., 4-months), 99.74% Area; in series [1] (5° C., 6-months), 99.73% Area; in series [1] (25° C./60% RH, 1-month), 99.75% Area. The “Levels of Levosimendan (% Area)” value in series [1] (25° C./60% RH, 2-months) is 99.79% Area; in series [1] (25° C./60% RH, 4-months), 99.51% Area; in series [1] (25° C./60% RH, 6-months) it was 99.49% Area; in series [1] (40° C./75% RH, 1-month), 99.51% Area; in series [1] (40° C./75% RH, 4-months), 98.88% Area; in series [1] (40° C./75% RH, 6-months), 98.37% Area. In addition, the “Levels of Levosimendan (% Area)” value is given as 99.83% Area in series [1] (−20° C., 1-month); 99.79% Area in series [1] (−20° C., 4-months); 99.72% Area in series [1] (−20° C., 6-months); 99.82% Area in series [1] (−80° C., 1-month); 99.74% Area in series [1] (−80° C., 4-months); 99.74% Area in series [1] (−80° C., 6-months). Further, the “Level of Degradants (% Area)” value in series [1] (after four months, 5° C.) worked out at 99.91 % Area; in series [1] (setting [5]) it was 99.64 % Area; in series [1] (after four months, −20° C.) it was 99.93 % Area; in series [1] (after six months, 5° C.), 99.90 % Area; in series [1] (setting [6]), 99.57 % Area. Besides, the level of levosimendan result in series [1] (each storage condition, after six months) is given as “over 98%”. Moreover, the “share of total levosimendan dose reduced in the intestine to OR-1855 (minor pathway)” value in series [2] (in vivo) is reported as “approximately 6%”. In addition, the “terminal elimination half-life of levosimendan” value in series [2] (in vivo) is recorded as “about 1 hour”.
